ChEMBL document CHEMBL1201862, “PubChem BioAssay data set” (2004)
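How tested: cells in 96-well plates exposed to compound for 48 hours at five concentrations. GI50 marks 50% less growth.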 Active and inactive are the calls of the source. Rule as the data show it: active = GI50 up to about 1.1 µM and inactive = higher.

Columns and labels:
Assay in all cases: NCI tumour cell line growth inhibition, 48 h
LOX IMVI = test system: LOX IMVI
Malme-3M = test system: Malme-3M
UACC-62 = test system: UACC-62
RXF 393 = test system: RXF 393
IGROV-1 = test system: IGROV-1
SNB-19 = test system: SNB-19
786-0 = test system: 786-0
SF-295 = test system: SF-295
HCT-116 = test system: HCT-116
OVCAR-3 = test system: OVCAR-3
HCT-15 = test system: HCT-15
NCI-H522 = test system: NCI-H522
OVCAR-8 = test system: OVCAR-8
CAKI-1 = test system: CAKI-1
M14 = test system: M14

| SMILES | GI50 (LOX IMVI) | GI50 (Malme-3M) | GI50 (UACC-62) | GI50 (RXF 393) | GI50 (IGROV-1) | GI50 (SNB-19) | GI50 (786-0) | GI50 (SF-295) | GI50 (HCT-116) | GI50 (OVCAR-3) | GI50 (HCT-15) [µM] | GI50 (NCI-H522) | GI50 (OVCAR-8) | GI50 (CAKI-1) | GI50 (M14) |
| --- | --- | --- | --- | --- | --- | --- | --- | --- | --- | --- | --- | --- | --- | --- | --- |
| O=[N+]([O-])c1ccc(C2N3CCCCC3[C@H]3CCCCN23)cc1 (some centres undefined) | > 100 µM (inactive) | > 100 µM (inactive) | > 100 µM (inactive) | > 100 µM (inactive) | > 100 µM (inactive) | > 100 µM (inactive) | > 100 µM (inactive) | > 100 µM (inactive) | > 100 µM (inactive) | > 100 µM (inactive) | > 100 | > 100 µM (inactive) | > 100 µM (inactive) | > 100 µM (inactive) | > 100 µM (inactive) |
| CCOc1ccccc1NC(=O)CC1C(=O)Nc2ccccc2[S+]1[O-] (centres undefined) | > 100 µM (inactive) | > 100 µM (inactive) | 26.3 µM (inactive) | 50 µM (inactive) | 51.5 µM (inactive) | > 100 µM (inactive) | 63.1 µM (inactive) | > 100 µM (inactive) | > 100 µM (inactive) | 39.5 µM (inactive) | > 100 | 45.4 µM (inactive) | 43.2 µM (inactive) | > 100 µM (inactive) | 77.1 µM (inactive) |
| COC(=O)C(=O)C(/C(=N/N)C(=O)Nc1ccccc1C(N)=O)c1nc2ccc([N+](=O)[O-])cc2nc1O (centres undefined) | > 100 µM (inactive) | > 100 µM (inactive) | > 100 µM (inactive) |  | > 100 µM (inactive) | > 100 µM (inactive) | > 100 µM (inactive) | > 100 µM (inactive) | > 100 µM (inactive) | > 100 µM (inactive) | > 100 | > 100 µM (inactive) | > 100 µM (inactive) | > 100 µM (inactive) | > 100 µM (inactive) |
| O=Cn1c2ccccc2c2ccccc21 | > 100 µM (inactive) | > 100 µM (inactive) | > 100 µM (inactive) | > 100 µM (inactive) | > 100 µM (inactive) | > 100 µM (inactive) | > 100 µM (inactive) | > 100 µM (inactive) | > 100 µM (inactive) | > 100 µM (inactive) | > 100 | > 100 µM (inactive) | > 100 µM (inactive) |  | > 100 µM (inactive) |
| CCCCNC1CCCCC[C@H]1O (some centres undefined) | > 100 µM (inactive) |  | > 100 µM (inactive) | > 100 µM (inactive) | > 100 µM (inactive) | > 100 µM (inactive) | > 100 µM (inactive) | > 100 µM (inactive) | > 100 µM (inactive) | > 100 µM (inactive) |  | > 100 µM (inactive) | > 100 µM (inactive) | > 100 µM (inactive) | > 100 µM (inactive) |
| Nc1nc2c(ncn2CCOC(c2ccccc2)P(=O)(O)O)c(=O)[nH]1 (centres undefined) | > 100 µM (inactive) | > 100 µM (inactive) | > 100 µM (inactive) | > 100 µM (inactive) | > 100 µM (inactive) | > 100 µM (inactive) | > 100 µM (inactive) | > 100 µM (inactive) | > 100 µM (inactive) | > 100 µM (inactive) | > 100 | > 100 µM (inactive) | > 100 µM (inactive) | > 100 µM (inactive) |  |
| CCCCCCCCCCCC[N+]12CC[N+](C)(CC1)CC2 | 19.4 µM (inactive) | 46.9 µM (inactive) | 22.6 µM (inactive) | 1.31 µM (inactive) | 1.98 µM (inactive) | 14 µM (inactive) | 13 µM (inactive) | 22.3 µM (inactive) | 38.7 µM (inactive) | 64.1 µM (inactive) |  | 19.4 µM (inactive) | > 100 µM (inactive) | 11.8 µM (inactive) | 29.6 µM (inactive) |
| CC(=O)c1c(C)[n+]([O-])c2cc(C)c(C)cc2[n+]1[O-] | > 100 µM (inactive) | > 100 µM (inactive) | > 100 µM (inactive) |  | > 100 µM (inactive) | > 100 µM (inactive) | > 100 µM (inactive) | > 100 µM (inactive) |  | > 100 µM (inactive) | > 100 | > 100 µM (inactive) | > 100 µM (inactive) | > 100 µM (inactive) | > 100 µM (inactive) |
| CC(C)NC(=O)OCc1nnn2c1C(OC(=O)NC(C)C)CC2 (centres undefined) |  | > 100 µM (inactive) | > 100 µM (inactive) | > 100 µM (inactive) | > 100 µM (inactive) | > 100 µM (inactive) | > 100 µM (inactive) | > 100 µM (inactive) | > 100 µM (inactive) | > 100 µM (inactive) | > 100 | > 100 µM (inactive) | > 100 µM (inactive) | > 100 µM (inactive) | > 100 µM (inactive) |
| O=C1OC2(OC2c2ccccc2)c2ccccc21 (centres undefined) | > 100 µM (inactive) | > 100 µM (inactive) | > 100 µM (inactive) | > 100 µM (inactive) | > 100 µM (inactive) | > 100 µM (inactive) | > 100 µM (inactive) |  | 5.05 µM (inactive) | > 100 µM (inactive) | > 100 | > 100 µM (inactive) | > 100 µM (inactive) |  | > 100 µM (inactive) |
| S=c1[nH]c(=S)c2nnn(-c3ccccc3)c2[nH]1 | > 100 µM (inactive) | > 100 µM (inactive) | > 100 µM (inactive) | > 100 µM (inactive) | > 100 µM (inactive) | > 100 µM (inactive) | > 100 µM (inactive) |  | 0.0836 µM (active) | > 100 µM (inactive) | > 100 | > 100 µM (inactive) | > 100 µM (inactive) | > 100 µM (inactive) | > 100 µM (inactive) |
| COc1ccc(OC)c(CCc2cc(OC)c(OC)cc2C)c1 |  | 4.2 µM (inactive) | 25.2 µM (inactive) |  | 8.47 µM (inactive) | 92.7 µM (inactive) | 38.7 µM (inactive) | 6.89 µM (inactive) |  | 3.05 µM (inactive) |  | 3.65 µM (inactive) | 48.5 µM (inactive) | 52 µM (inactive) | 4.26 µM (inactive) |
| CCc1cccc(C)c1NC(=O)C1=C(C)NC(C)=C(C(=O)Nc2c(C)cccc2CC)C1c1ccc2c(c1)OCO2 | 18.3 µM (inactive) | 15.6 µM (inactive) |  | 13.2 µM (inactive) | 24.7 µM (inactive) | 29.1 µM (inactive) | 16.7 µM (inactive) | 17.5 µM (inactive) |  | 17.5 µM (inactive) |  | 15.9 µM (inactive) | 29.6 µM (inactive) | 18.8 µM (inactive) | 16.1 µM (inactive) |
| O=C1OCc2nc3c(c(-c4ccccc4C(F)(F)F)c21)C(=O)OC3 | > 100 µM (inactive) | > 100 µM (inactive) | > 100 µM (inactive) | > 100 µM (inactive) | > 100 µM (inactive) | > 100 µM (inactive) | > 100 µM (inactive) | > 100 µM (inactive) | > 100 µM (inactive) | > 100 µM (inactive) | > 100 | > 100 µM (inactive) | > 100 µM (inactive) |  | > 100 µM (inactive) |
| CCC1C(=O)OCc2c1cc1n(c2=O)Cc2ccccc2-1 (centres undefined) | > 100 µM (inactive) | > 100 µM (inactive) | > 100 µM (inactive) | > 100 µM (inactive) | > 100 µM (inactive) | > 100 µM (inactive) | > 100 µM (inactive) | > 100 µM (inactive) | > 100 µM (inactive) | > 100 µM (inactive) | > 100 |  | > 100 µM (inactive) | 34.2 µM (inactive) | > 100 µM (inactive) |
